Test results as given in US20250090563A1, “COMPOSITION FOR PREVENTION, AMELIORATION OR TREATMENT OF INFLAMMATORY BOWEL DISEASE COMPRISING GALACTO-OLIGOSACCHARIDE” (NEO CREMAR CO., LTD., priority 2022, published 2025).

What was measured:
[1] = tested on: mice with DSS-induced colitis; test: Disease activity index (DAI) in DSS-induced acute colitis model; type: in vivo, BALB/c mice
Method: For use in this experiment, female BALB/c mice (7 weeks old) were purchased from Saeronbio Inc. (Gyeonggi-do, Korea) and acclimatized for 7 days under SPF conditions at Kyonggi University (temperature 23±2° C., humidity 50±5%, 12-hour light/dark cycle). All experiments adhered to the guidelines of the university's Animal Ethics Committee. An acute colitis model was induced using dextran sodium sulfate (DSS). Mice were divided into seven groups of seven mice each. 1) A normal control group received purified water orally for 28 days. 2) A colitis group received purified water for 28 days and 5% DSS solution freely from days 21 to 28 to induce colitis. […] On the 29th day, each mouse was sacrificed, and the length of the colon and small intestine and the weight of the spleen were measured and evaluated. […] During the DSS treatment, colitis severity was determined using the disease activity index (DAI), which measures weight loss, stool consistency, rectal bleeding, and perianal blood presence according to the criteria in Table 3. After monitoring with the naked eye every two days for eight days, the scores were summed and calculated. […]

[2] = tested on: myeloperoxidase (MPO); test: MPO level in colon tissue of DSS-induced colitis mice; type: in vivo, BALB/c mice; settings: 100 mg/kg for 28 days (positive control)
Method: (§1) Mice were divided into seven groups of seven mice each. 1) A normal control group received purified water orally for 28 days. 2) A colitis group received purified water for 28 days and 5% DSS solution freely from days 21 to 28 to induce colitis. The galacto-oligosaccharide of the present disclosure was administered at a dose of 3) 400 mg/kg and 4) 800 mg/kg to two groups of colitis-induced mice, respectively, for 28 days. In addition, to colitis-induced mice, the galacto-oligosaccharides from 5) company A and 6) company B were each administered at a dose of 800 mg/kg for 28 days while 7) the positive control group was administered 100 mg/kg of the anti-inflammatory agent 5-ASA (5-aminosalicylic acid) for 28 days. On the 29th day, each mouse was sacrificed, and the length of the colon and small intestine and the weight of the spleen were measured and evaluated. After measurement, the colon tissue was cut into 1 cm lengths, and the cecum was excised and placed into separate Ep. tubes for storage in a deep freezer for future experiments. […]
(§2) First, colon tissue samples were suspended in PBS containing a protease inhibitor (Roche Diagnostics Corp., Indianapolis, IN, USA) and homogenized uniformly using a TaKaRa BioMasher (Takara Bio Inc., Shiga, Japan). […] Protein concentration was quantified using a bicinchoninic acid kit (Thermo Scientific, Waltham, MA, USA).

[3] = tested on: intestinal short chain fatty acids; test: Short chain fatty acid (SCFA) production in cecum of DSS-induced mice (GC); type: in vivo
Method: To determine the effect of administering the galacto-oligosaccharide of the present disclosure on the intestinal short chain fatty acids in DSS-induced mice, 5-ASA and the GOS of the present disclosure were administered at low (7 mg/mouse), medium (14 mg/mouse), and high (21 mg/mouse) concentrations to DSS-induced mice according to the schedule described in Example 3-1. Afterward, the cecums of the mice were collected, homogenized with a homogenizer, and suspended in 80% methanol. The samples were then centrifuged at 13,000 rpm for 10 minutes, diluted to a final concentration of 1 g/mL, and filtered through a 0.45 μm syringe filter. Quantitative analysis of SCFAs was performed by preparing each STD at different concentrations and using 2-ethylbutyric acid as the internal standard (ISTD). The standard curves were calculated based on the peak area ratios. In brief, the SCFA content was measured using gas chromatography (GC) equipped with a DB-FFAP capillary column to determine the production capacity of six SCFAs (acetic acid, propionic acid, butyric acid, valeric acid, caproic acid, and heptanoic acid). The GC analysis conditions were as follows: 100° C. (0.5 min), 100° C.→180° C. (8° C./min), 180° C. (1.0 min), 180° C.→200° C. (20° C./min), 200° C. (5.0 min).

[4] = tested on: IL-6; test: IL-6 level in colon tissue of DSS-induced colitis mice; type: in vivo, BALB/c mice
Method: as §1, §2

[5] = tested on: mice with DSS-induced colitis; test: Colon length in DSS-induced acute colitis model; type: in vivo, BALB/c mice
Method: as §1, with “For use in this experiment, female BALB/c mice (7 weeks old) were purchased from Saeronbio Inc. (Gyeonggi-do, Korea) and acclimatized for 7 days under SPF conditions at Kyonggi University (temperature 23±2° C., humidity 50±5%, 12-hour light/dark cycle). All experiments adhered to the guidelines of the university's Animal Ethics Committee. An acute colitis model was induced using dextran sodium sulfate (DSS). Mice” for “Mice”, “The galacto-oligosaccharide of the present disclosure was administered at a dose of 3) 400 mg/kg and 4) 800 mg/kg to two groups of colitis-induced mice, respectively, for 28 days.” left out, “experiments. Portions of the remaining colon tissue were fixed in a 4% formalin solution.” for “experiments.”

[6] = tested on: mucin and goblet cells in the colon; test: Histological analysis of colon (Alcian blue-PAS staining) in DSS-induced colitis mice; type: in vivo, BALB/c mice; settings: colon sections, FIG. 9; dose not stated
[7] = tested on: TNF-α; test: TNF-α level in colon tissue of DSS-induced colitis mice; type: in vivo, BALB/c mice
Method: as §1, §2

[8] = 100 mg/kg (positive control), DSS colitis mice
[9] = 100 mg/kg for 28 days (positive control), 5% DSS days 21-28
[10] = PC, dose 100 mg/kg, DSS-induced mice
[11] = 100 mg/kg for 28 days (positive control), DSS colitis

## Nc1ccc(O)c(C(=O)O)c1 [5-ASA, 5-aminosalicylic acid]
[1]; [8]
  Colitis amelioration effect (DAI), in words: did not show any colitis amelioration effect
[1]; [9]
  Disease Activity Index of 8 day (Score): 10.3 Score
[2]
  MPO: 45 pg/mg
[3]; PC group, cecum
  All SCFAs except acetic acid compared to the NC treated with 5% DSS alone, in words: slight increase
[3]; [10]
  Acetic acid, share of total SCFA (value in parentheses): 73.3
  Acetic acid, short chain fatty acid production in cecum: 8917 µM
  Butyric acid, share of total SCFA (value in parentheses): 15.8
  Butyric acid, short chain fatty acid production in cecum: 1923 µM
  Propionic acid, share of total SCFA (value in parentheses): 10.9
  Propionic acid, short chain fatty acid production in cecum: 1321 µM
  Total SCFA, share of total SCFA (value in parentheses): 100
  Total SCFA, short chain fatty acid production in cecum: 12161 µM
[4]; [8]
  Level of IL-6 versus DSS group, in words: greatly reduced
[4]; [11]
  IL-6: 12 pg/mg
[5]; [8]
  Inhibition of the reduction of colon length, in words: showed an efficacy in inhibiting the reduction of colon length
[5]; [9]
  Colon length: 5.2 cm
[6]
  Amount of mucin (Alcian blue-PAS) compared to the DSS-treated group: the amount of mucin recovered
  Goblet cells compared to the DSS-treated group: goblet cells were observed
[7]; [8]
  Level of TNF-α versus DSS group, in words: greatly reduced
[7]; [11]
  TNF-α: 100 pg/mg
